Tested on: Bmi-1 protein
Experiment: Sandwich ELISA Assay: Bmi-1 protein level in HT-1080 cells treated with test compounds
Format: cell-based
Procedure, shortened: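 HT-1080 cells exposed to compounds (final DMSO 0.5%) for 40-48 h at 37° C, 5% CO2, then lysed. Bmi-1 quantified by sandwich ELISA (mouse anti-Bmi-1 capture, rabbit anti-Bmi-1 detection, HRP anti-rabbit, TMB), read at OD450 with OD570 reference, against recombinant GST-Bmi-1 standard curve (0-8000 pg/mL).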

Row | Structure (SMILES) | EC50
1 | COc1ccc(Nc2nc(N)nc(-n3c(C)nc4ccccc43)n2)cc1 [Cpd 147, N-(4-methoxyphenyl)-6-(2-methyl-1H-benzimidazol-1-yl)-1,3,5-triazine-2,4-diamine] | 1 to 10 nM
2 | Nc1nc(Nc2ccc(C(F)(F)F)cc2)nc(-n2c(CF)nc3ccccc32)n1 [Cpd 107, 6-[2-(fluoromethyl)-1H-benzimidazol-1-yl]-N-[4-(trifluoromethyl)phenyl]-1,3,5-triazine-2,4-diamine] | 100 to 3000 nM
3 | Cc1nc2c(F)cc(F)cc2n1-c1nc(N)nc(Nc2ccc(OC(F)F)c(F)c2)n1 [Cpd 48, N-[4-(difluoromethoxy)-3-fluorophenyl]-6-(4,6-difluoro-2-methyl-1H-benzimidazol-1-yl)-1,3,5-triazine-2,4-diamine] | 10 to 100 nM
4 | Cc1nc2ccccc2n1-c1nc(NCCO)nc(Nc2ccc3c(c2)OCO3)n1 [Cpd 19, 2-{[4-(1,3-benzodioxol-5-ylamino)-6-(2-methyl-1H-benzimidazol-1-yl)-1,3,5-triazin-2-yl]amino}ethanol] | 100 to 3000 nM
5 | Cc1nc2ccc(F)cc2n1-c1cnnc(Nc2ccc(OC(F)F)cc2)n1 [Cpd 136, N-[4-(difluoromethoxy)phenyl]-5-(6-fluoro-2-methyl-1H-benzimidazol-1-yl)-1,2,4-triazin-3-amine] | 10 to 100 nM
6 | CCc1nc2cc(F)ccc2n1-c1nc(N)nc(Nc2ccc(Br)cc2)n1 [Cpd 221, N-(4-bromophenyl)-6-(2-ethyl-5-fluoro-1H-benzimidazol-1-yl)-1,3,5-triazine-2,4-diamine] | 10 to 100 nM
7 | Cc1ccc(Nc2nc(N)nc(-n3c(C)nc4c(F)cc(F)cc43)n2)cc1 [Cpd 186, 6-(4,6-difluoro-2-methyl-1H-benzimidazol-1-yl)-N-(4-methylphenyl)-1,3,5-triazine-2,4-diamine] | 1 to 10 nM
8 | Nc1nc(Nc2ccc(C(F)(F)F)cc2)nc(-n2c(C3CC3)nc3ccccc32)n1 [Cpd 42, 6-(2-cyclopropyl-1H-benzimidazol-1-yl)-N-[4-(trifluoromethyl)phenyl]-1,3,5-triazine-2,4-diamine] | 10 to 100 nM
9 | Cc1nc2ccccc2n1-c1nc(N)nc(Nc2ccc(OC(F)F)cc2)n1 [Cpd 4, N-[4-(difluoromethoxy)phenyl]-6-(2-methyl-1H-benzimidazol-1-yl)-1,3,5-triazine-2,4-diamine] | 10 to 100 nM
10 | COc1ccc(Nc2cnnc(-n3c(C)nc4ccccc43)n2)cc1 [Cpd 144, N-(4-methoxyphenyl)-3-(2-methyl-1H-benzimidazol-1-yl)-1,2,4-triazin-5-amine] | 1 to 10 nM
11 | COc1ccc(Nc2nc(N)nc(-n3c(C4CC4)nc4ccccc43)n2)cc1 [Cpd 153, 6-(2-cyclopropyl-1H-benzimidazol-1-yl)-N-(4-methoxyphenyl)-1,3,5-triazine-2,4-diamine] | 1 to 10 nM
12 | Cc1nc2ccccc2n1-c1nc(N)nc(Nc2ccc(OC(F)F)c(F)c2)n1 [Cpd 6, N-[4-(difluoromethoxy)-3-fluorophenyl]-6-(2-methyl-1H-benzimidazol-1-yl)-1,3,5-triazine-2,4-diamine] | 10 to 100 nM
13 | COc1ccc(Nc2nc(N)nc(-n3c(C)nc4c(F)cc(F)cc43)n2)cc1 [Cpd 185, 6-(4,6-difluoro-2-methyl-1H-benzimidazol-1-yl)-N-(4-methoxyphenyl)-1,3,5-triazine-2,4-diamine] | 1 to 10 nM
14 | Cc1ccc(Nc2nc(N)nc(-n3c(C)nc4ccccc43)n2)cc1 [Cpd 148, 6-(2-methyl-1H-benzimidazol-1-yl)-N-(4-methylphenyl)-1,3,5-triazine-2,4-diamine] | 1 to 10 nM
15 | CCc1nc2ccccc2n1-c1nc(N)nc(Nc2ccc(C(F)(F)F)cc2)n1 [Cpd 30, 6-(2-ethyl-1H-benzimidazol-1-yl)-N-[4-(trifluoromethyl)phenyl]-1,3,5-triazine-2,4-diamine] | 10 to 100 nM
16 | N#Cc1ccc(Nc2nc(N)nc(-n3c(C4CC4)nc4ccccc43)n2)cc1 [Cpd 158, 4-{[4-amino-6-(2-cyclopropyl-1H-benzimidazol-1-yl)-1,3,5-triazin-2-yl]amino}benzonitrile] | 100 to 3000 nM
17 | Cc1nc2ccccc2n1-c1nc(N)nc(Nc2ccc(Cl)cc2)n1 [Cpd 150, N-(4-chlorophenyl)-6-(2-methyl-1H-benzimidazol-1-yl)-1,3,5-triazine-2,4-diamine] | 10 to 100 nM
18 | CCc1nc2ccccc2n1-c1nc(N)nc(Nc2ccc(OC(F)F)c(F)c2)n1 [Cpd 37, N-[4-(difluoromethoxy)-3-fluorophenyl]-6-(2-ethyl-1H-benzimidazol-1-yl)-1,3,5-triazine-2,4-diamine] | 10 to 100 nM
19 | Cc1nc2ncc(Cl)cc2n1-c1nc(NCCO)nc(Nc2ccc(C(F)(F)F)cc2)n1 [Cpd 35, 2-{[4-(6-chloro-2-methyl-1H-imidazo[4,5-b]pyridin-1-yl)-6-{[4-(trifluoromethyl)phenyl]amino}-1,3,5-triazin-2-yl]amino}ethanol] | 100 to 3000 nM
20 | CCc1nc2cc(F)ccc2n1-c1nc(N)nc(Nc2ccc(C)cc2)n1 [Cpd 174, 6-(2-ethyl-5-fluoro-1H-benzimidazol-1-yl)-N-(4-methylphenyl)-1,3,5-triazine-2,4-diamine] | 10 to 100 nM

Row | Structure (SMILES) | EC50
21 | Cc1nc2ccc(F)cc2n1-c1nc(N)nc(Nc2ccc(Cl)c(F)c2)n1 [Cpd 201, N-(4-chloro-3-fluorophenyl)-6-(6-fluoro-2-methyl-1H-benzimidazol-1-yl)-1,3,5-triazine-2,4-diamine] | 100 to 3000 nM
22 | Cc1nc2c(F)cc(F)cc2n1-c1nc(N)nc(Nc2ccc(OC(F)F)cc2)n1 [Cpd 47, N-[4-(difluoromethoxy)phenyl]-6-(4,6-difluoro-2-methyl-1H-benzimidazol-1-yl)-1,3,5-triazine-2,4-diamine] | 10 to 100 nM
23 | CCc1nc2c(F)cccc2n1-c1nc(N)nc(Nc2ccc(Cl)c(F)c2)n1 [Cpd 215, N-(4-chloro-3-fluorophenyl)-6-(2-ethyl-4-fluoro-1H-benzimidazol-1-yl)-1,3,5-triazine-2,4-diamine] | 10 to 100 nM
24 | Fc1ccc2nc(C3CC3)n(-c3cnnc(Nc4ccc(C(F)(F)F)cc4)n3)c2c1 [Cpd 134, 5-(2-cyclopropyl-6-fluoro-1H-benzimidazol-1-yl)-N-[4-(trifluoromethyl)phenyl]-1,2,4-triazin-3-amine] | 100 to 3000 nM
25 | Cc1nc2ccccc2n1-c1nc(N)nc(Nc2cc3ccccc3cn2)n1 [Cpd 22, N-(isoquinolin-3-yl)-6-(2-methyl-1H-benzimidazol-1-yl)-1,3,5-triazine-2,4-diamine] | 10 to 100 nM
26 | Cc1nc2ccccc2n1-c1nc(N)nc(Nc2ccc(Br)cc2)n1 [Cpd 206, N-(4-bromophenyl)-6-(2-methyl-1H-benzimidazol-1-yl)-1,3,5-triazine-2,4-diamine] | 1 to 10 nM
27 | Cc1nc2ccccc2n1-c1nc(N)nc(Nc2ccc(C(C)C)cc2)n1 [Cpd 167, 6-(2-methyl-1H-benzimidazol-1-yl)-N-[4-(propan-2-yl)phenyl]-1,3,5-triazine-2,4-diamine] | 100 to 3000 nM
28 | Cc1nc2c(F)cc(F)cc2n1-c1nc(N)nc(Nc2ccc(C(F)(F)F)cc2)n1 [Cpd 46, 6-(4,6-difluoro-2-methyl-1H-benzimidazol-1-yl)-N-[4-(trifluoromethyl)phenyl]-1,3,5-triazine-2,4-diamine] | 100 to 3000 nM
29 | Cc1nc2ccccc2n1-c1nc(N)nc(Nc2ccc3[nH]ccc3c2)n1 [Cpd 7, N-(1H-indol-5-yl)-6-(2-methyl-1H-benzimidazol-1-yl)-1,3,5-triazine-2,4-diamine] | 1 to 10 nM
30 | Nc1nc(Nc2ccc(C(F)(F)F)cc2)nc(-n2c(C3CC3)nc3ncc(F)cc32)n1 [Cpd 36, 6-(2-cyclopropyl-6-fluoro-1H-imidazo[4,5-b]pyridin-1-yl)-N-[4-(trifluoromethyl)phenyl]-1,3,5-triazine-2,4-diamine] | 100 to 3000 nM
31 | COc1ccc(Nc2nc(N)nc(-n3c(C)nc4ccc(F)cc43)n2)cc1 [Cpd 164, 6-(6-fluoro-2-methyl-1H-benzimidazol-1-yl)-N-(4-methoxyphenyl)-1,3,5-triazine-2,4-diamine] | 1 to 10 nM
32 | CCc1nc2ccc(F)cc2n1-c1nc(N)nc(Nc2ccc(OC(F)F)c(F)c2)n1 [Cpd 57, N-[4-(difluoromethoxy)-3-fluorophenyl]-6-(2-ethyl-6-fluoro-1H-benzimidazol-1-yl)-1,3,5-triazine-2,4-diamine] | 10 to 100 nM
33 | Cc1nc2ccccc2n1-c1nncc(Nc2ccc(OC(F)F)cc2)n1 [Cpd 99, N-[4-(difluoromethoxy)phenyl]-3-(2-methyl-1H-benzimidazol-1-yl)-1,2,4-triazin-5-amine] | 10 to 100 nM
34 | Cc1nc2ccccc2n1-c1nc(N)nc(Nc2ccc3ncccc3c2)n1 [Cpd 14, 6-(2-methyl-1H-benzimidazol-1-yl)-N-(quinolin-6-yl)-1,3,5-triazine-2,4-diamine] | 1 to 10 nM
35 | CCc1nc2c(F)cc(F)cc2n1-c1nc(N)nc(Nc2ccc(OC(F)F)c(F)c2)n1 [Cpd 50, N-[4-(difluoromethoxy)-3-fluorophenyl]-6-(2-ethyl-4,6-difluoro-1H-benzimidazol-1-yl)-1,3,5-triazine-2,4-diamine] | 10 to 100 nM
36 | CCc1nn2ccccc2c1-c1nc(N)nc(Nc2ccc(C(F)(F)F)cc2)n1 [Cpd 128, 6-(2-ethylpyrazolo[1,5-a]pyridin-3-yl)-N-[4-(trifluoromethyl)phenyl]-1,3,5-triazine-2,4-diamine] | 100 to 3000 nM
37 | Nc1nc(Nc2ccc(C(F)(F)F)cc2)nc(-n2c(C3CC3)nc3c(F)cc(F)cc32)n1 [Cpd 88, 6-(2-cyclopropyl-4,6-difluoro-1H-benzimidazol-1-yl)-N-[4-(trifluoromethyl)phenyl]-1,3,5-triazine-2,4-diamine] | 10 to 100 nM
38 | Cc1ccc(Nc2nc(N)nc(-n3c(C)nc4ccc(F)cc43)n2)cc1 [Cpd 165, 6-(6-fluoro-2-methyl-1H-benzimidazol-1-yl)-N-(4-methylphenyl)-1,3,5-triazine-2,4-diamine] | 1 to 10 nM
39 | Nc1nc(Nc2ccc(OC(F)F)cc2)nc(-n2c(CO)nc3ccccc32)n1 [Cpd 120, [1-(4-amino-6-{[4-(difluoromethoxy)phenyl]amino}-1,3,5-triazin-2-yl)-1H-benzimidazol-2-yl]methanol] | 100 to 3000 nM

Source: US9975878B2, “Substituted triazine BMI-1 inhibitors” (PTC Therapeutics, Inc., priority 2013, dated 2018)
